Experimental data taken from patent US20230043863A1, “HETEROAROMATIC DERIVATIVES FOR USE AS REGULATOR, PREPARATION METHOD THEREFOR AND USE THEREOF” (JIANGSU HANSOH PHARMACEUTICAL GROUP CO., LTD., priority 2018, published 2023).

What was measured:
[1] = target: JAK1 (Homo sapiens, UniProt P23458); assay: JAK kinase activity inhibition, TR-FRET (JAK1); type: biochemical; settings: TR-FRET kinase assay
Outline: (§1)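 Steps: compound dilutions added; JAK kinase (0.1-20 nM) in HEPES/MgCl2 buffer added; peptide substrate and ATP mix started the reaction, 0.5-5 h at room temperature; EDTA and labeled antibody added, 1-24 h further. IC50 derived from 620/665 nm signals by four-parameter nonlinear fitting.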

[2] = target: T1, JAK3 (Homo sapiens, UniProt P52333); assay: JAK kinase activity inhibition, TR-FRET (JAK3); type: biochemical; settings: TR-FRET kinase assay
T1 sequence (P52333 1-1124): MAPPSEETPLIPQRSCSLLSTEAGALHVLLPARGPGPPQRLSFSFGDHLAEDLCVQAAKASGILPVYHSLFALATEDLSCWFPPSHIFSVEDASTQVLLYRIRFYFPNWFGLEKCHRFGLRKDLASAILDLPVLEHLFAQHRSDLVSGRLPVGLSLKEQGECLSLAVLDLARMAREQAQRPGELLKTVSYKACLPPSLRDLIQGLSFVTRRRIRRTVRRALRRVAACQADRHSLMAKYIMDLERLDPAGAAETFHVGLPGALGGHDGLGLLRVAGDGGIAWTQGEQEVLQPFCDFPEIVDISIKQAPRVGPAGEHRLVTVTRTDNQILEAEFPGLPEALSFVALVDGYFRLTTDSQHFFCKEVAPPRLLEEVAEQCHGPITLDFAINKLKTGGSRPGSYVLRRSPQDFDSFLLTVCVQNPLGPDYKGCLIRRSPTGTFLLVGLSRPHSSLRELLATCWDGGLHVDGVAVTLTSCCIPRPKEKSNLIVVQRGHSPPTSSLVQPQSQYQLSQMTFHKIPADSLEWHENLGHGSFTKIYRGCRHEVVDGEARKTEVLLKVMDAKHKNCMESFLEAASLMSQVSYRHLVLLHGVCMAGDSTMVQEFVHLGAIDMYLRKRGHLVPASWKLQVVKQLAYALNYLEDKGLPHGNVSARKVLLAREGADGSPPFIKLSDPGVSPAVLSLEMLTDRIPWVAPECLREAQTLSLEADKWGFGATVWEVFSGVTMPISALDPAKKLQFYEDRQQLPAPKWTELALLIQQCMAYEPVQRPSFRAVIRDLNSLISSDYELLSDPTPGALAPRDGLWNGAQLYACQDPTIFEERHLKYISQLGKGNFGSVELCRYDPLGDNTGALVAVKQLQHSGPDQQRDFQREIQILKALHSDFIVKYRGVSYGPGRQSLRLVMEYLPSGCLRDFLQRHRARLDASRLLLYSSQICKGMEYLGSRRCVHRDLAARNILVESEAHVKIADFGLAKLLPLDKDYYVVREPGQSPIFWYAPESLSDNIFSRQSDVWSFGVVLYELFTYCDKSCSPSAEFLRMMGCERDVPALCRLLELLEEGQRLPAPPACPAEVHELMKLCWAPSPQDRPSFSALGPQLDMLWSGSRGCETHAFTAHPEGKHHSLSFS
Method: (§2) Experimental objective: The objective of this test is to test the inhibitory effect of the compound on JAK kinase activity.
(§3) Experimental method: the fluorescence resonance energy transfer (TR-FRET) method was used to test the inhibitory effect of the compound on JAK kinase activity, and the half inhibitory concentration IC50 of the compound on JAK kinase activity was obtained.
(§4) Kinase reaction was carried out in a white 384-well plate (PerkinElmer). 1-5 μL of different concentrations of the compound diluted with DMSO and ddH2O was added into each well, and 1-5 μL of the corresponding solvent was added to the positive control wells, followed by addition of 0.1-20 nM JAK kinase solution diluted with 1-5 μL of kinase buffer (HEPES 50-250 mM, MgCl2 5-20 mM, etc.) was added to each well. 1-5 μL of kinase buffer was added to the negative control well. 1-5 μL of substrate mixture containing peptide substrate and ATP was added. The plate was incubated at room temperature for 0.5-5 hours. […], EDTA and detection solution containing labeled antibody was added, and then the plate was incubated at room temperature for another 1-24 hours. The fluorescence signal value at about 620 nm and 665 nm of each well was measured by BioTek Synergy H1 plate reader, and the inhibition rate was calculated by the fluorescence signal value. According to the inhibition rate of different concentrations, the IC50 of the compound was obtained by curve fitting.
(§5) The percentage inhibition data of the wells treated with the compound was calculated with the positive control wells (DMSO control wells) and negative control wells (no kinase added) on the plate {% inhibition rate=100-[(test compound value-negative control value)]/(Positive control value-negative control value)×100}. IC50 value was calculated by using GraphPad prism to fit the data of different concentrations and corresponding percentage inhibition rates to a 4-parameter non-linear logic formula.

[3] = target: JAK2 (Homo sapiens, UniProt O60674); assay: JAK kinase activity inhibition, TR-FRET (JAK2); type: biochemical; settings: TR-FRET kinase assay
JAK2, sequence (O60674 whole entry): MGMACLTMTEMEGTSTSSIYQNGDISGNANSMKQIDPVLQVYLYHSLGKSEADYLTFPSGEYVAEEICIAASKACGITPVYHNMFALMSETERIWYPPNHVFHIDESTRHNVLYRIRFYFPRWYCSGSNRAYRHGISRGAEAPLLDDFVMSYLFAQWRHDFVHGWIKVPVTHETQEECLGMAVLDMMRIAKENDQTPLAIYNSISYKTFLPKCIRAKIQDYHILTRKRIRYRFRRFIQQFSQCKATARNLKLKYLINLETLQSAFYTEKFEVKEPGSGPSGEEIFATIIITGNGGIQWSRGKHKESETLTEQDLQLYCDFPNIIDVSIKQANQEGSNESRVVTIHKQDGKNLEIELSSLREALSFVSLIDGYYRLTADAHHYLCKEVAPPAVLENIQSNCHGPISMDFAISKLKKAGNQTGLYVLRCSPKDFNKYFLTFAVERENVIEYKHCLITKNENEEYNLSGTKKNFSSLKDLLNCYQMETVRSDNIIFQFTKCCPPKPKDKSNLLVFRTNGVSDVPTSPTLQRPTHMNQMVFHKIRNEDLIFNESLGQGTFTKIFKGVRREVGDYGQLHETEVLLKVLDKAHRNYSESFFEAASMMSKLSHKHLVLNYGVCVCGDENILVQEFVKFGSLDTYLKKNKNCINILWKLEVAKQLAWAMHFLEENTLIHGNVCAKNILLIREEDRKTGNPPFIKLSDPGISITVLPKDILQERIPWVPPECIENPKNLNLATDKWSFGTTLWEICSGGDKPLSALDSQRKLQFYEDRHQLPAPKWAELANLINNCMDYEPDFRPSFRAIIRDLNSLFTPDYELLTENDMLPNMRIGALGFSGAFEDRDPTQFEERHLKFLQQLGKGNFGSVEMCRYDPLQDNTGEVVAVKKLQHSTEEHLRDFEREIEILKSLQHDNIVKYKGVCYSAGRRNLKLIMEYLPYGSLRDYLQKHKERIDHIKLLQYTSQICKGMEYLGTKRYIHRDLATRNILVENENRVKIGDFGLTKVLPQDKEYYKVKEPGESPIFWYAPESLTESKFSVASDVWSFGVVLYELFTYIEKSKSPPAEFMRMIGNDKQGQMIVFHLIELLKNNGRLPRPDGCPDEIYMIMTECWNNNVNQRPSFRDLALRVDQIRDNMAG
Method: as §2, §3, §4, §5

[4] = target: TYK2 (Homo sapiens, UniProt P29597); assay: JAK kinase activity inhibition, TR-FRET (TYK2); type: biochemical; settings: TR-FRET kinase assay
TYK2, sequence (P29597 whole entry): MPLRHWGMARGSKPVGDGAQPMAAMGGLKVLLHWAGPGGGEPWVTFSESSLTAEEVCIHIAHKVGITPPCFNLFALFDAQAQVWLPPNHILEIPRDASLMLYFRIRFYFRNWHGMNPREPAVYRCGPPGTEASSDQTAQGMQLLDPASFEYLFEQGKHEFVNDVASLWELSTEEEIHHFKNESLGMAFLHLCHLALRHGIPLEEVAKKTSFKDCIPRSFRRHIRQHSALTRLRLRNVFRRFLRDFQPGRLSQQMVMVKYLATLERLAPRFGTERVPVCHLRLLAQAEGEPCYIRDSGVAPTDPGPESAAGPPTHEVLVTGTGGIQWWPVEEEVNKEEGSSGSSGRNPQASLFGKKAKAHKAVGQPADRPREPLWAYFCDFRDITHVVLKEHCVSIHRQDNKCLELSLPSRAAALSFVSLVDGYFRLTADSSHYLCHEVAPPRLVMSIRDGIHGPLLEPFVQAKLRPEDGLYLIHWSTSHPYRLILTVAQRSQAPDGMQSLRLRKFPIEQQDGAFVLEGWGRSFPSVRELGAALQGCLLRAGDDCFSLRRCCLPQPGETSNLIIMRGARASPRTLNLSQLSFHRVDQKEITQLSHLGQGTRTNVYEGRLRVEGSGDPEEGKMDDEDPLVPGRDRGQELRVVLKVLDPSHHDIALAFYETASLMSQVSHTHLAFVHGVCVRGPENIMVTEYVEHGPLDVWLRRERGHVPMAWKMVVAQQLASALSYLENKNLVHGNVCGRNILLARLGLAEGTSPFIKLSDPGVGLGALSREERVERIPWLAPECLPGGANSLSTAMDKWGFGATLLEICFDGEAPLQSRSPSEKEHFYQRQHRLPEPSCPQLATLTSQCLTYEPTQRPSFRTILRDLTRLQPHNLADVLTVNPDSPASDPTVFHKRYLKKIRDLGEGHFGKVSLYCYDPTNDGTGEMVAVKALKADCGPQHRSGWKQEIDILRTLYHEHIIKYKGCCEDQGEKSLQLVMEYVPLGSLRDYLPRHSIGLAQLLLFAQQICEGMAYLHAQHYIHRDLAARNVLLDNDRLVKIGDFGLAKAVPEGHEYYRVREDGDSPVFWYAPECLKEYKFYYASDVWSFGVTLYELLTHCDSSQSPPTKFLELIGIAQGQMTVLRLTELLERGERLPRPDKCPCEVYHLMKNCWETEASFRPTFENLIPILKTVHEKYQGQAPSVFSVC
Outline: as §1

[5] = tested on: JAK-STAT signal pathway of U266 cells; assay: Inhibition of cellular JAK-STAT signal pathway (STAT3 phosphorylation) in U266 cells; type: cell-based, human; settings: Homo sapiens, U-266, INF-a 1000 U/mL stimulation
Outline: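 U266 cells (100-300 K/well) preincubated 2 h at room temperature with serially diluted compound, then stimulated 15 min with IFN-α at 1000 U/mL final. After lysis, STAT3 phosphorylation read by LANCE Ultra TR-FRET (Eu antibody 0.5 nM, ULight antibody 5 nM, overnight) at 665 nm; IC50 from 4-parameter fit of inhibition versus DMSO and negative controls.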

JAK1, sequence (P23458 whole entry): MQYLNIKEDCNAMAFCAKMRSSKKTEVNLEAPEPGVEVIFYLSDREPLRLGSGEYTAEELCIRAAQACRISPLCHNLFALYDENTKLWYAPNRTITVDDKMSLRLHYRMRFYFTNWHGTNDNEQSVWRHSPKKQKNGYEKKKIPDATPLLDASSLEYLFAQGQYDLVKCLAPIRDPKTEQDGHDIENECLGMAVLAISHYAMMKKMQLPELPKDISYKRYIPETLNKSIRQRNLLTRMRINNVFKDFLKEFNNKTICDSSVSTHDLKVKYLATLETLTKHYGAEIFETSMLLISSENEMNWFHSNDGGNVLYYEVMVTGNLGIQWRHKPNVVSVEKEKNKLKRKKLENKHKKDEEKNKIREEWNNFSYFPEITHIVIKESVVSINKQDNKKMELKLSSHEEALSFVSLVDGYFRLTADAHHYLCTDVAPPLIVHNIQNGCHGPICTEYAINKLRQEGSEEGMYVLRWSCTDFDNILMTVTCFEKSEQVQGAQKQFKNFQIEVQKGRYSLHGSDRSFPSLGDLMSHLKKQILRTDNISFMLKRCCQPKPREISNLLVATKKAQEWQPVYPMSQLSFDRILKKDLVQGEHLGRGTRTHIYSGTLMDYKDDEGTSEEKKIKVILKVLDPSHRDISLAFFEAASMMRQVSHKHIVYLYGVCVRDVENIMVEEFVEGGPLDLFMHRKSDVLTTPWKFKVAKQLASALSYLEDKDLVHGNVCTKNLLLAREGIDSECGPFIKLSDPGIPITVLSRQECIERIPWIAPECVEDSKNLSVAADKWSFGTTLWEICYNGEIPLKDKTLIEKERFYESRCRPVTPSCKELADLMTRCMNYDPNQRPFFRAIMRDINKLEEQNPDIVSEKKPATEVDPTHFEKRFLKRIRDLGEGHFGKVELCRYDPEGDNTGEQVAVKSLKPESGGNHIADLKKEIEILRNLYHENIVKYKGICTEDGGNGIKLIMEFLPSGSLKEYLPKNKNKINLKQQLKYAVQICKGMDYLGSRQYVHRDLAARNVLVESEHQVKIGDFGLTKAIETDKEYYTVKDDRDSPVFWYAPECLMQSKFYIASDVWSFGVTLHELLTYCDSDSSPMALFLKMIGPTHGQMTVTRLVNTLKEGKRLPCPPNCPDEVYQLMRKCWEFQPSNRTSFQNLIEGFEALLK

Compound | IC50 [1] [nM] | IC50 [2] [nM] | IC50 [3] [nM] | IC50 [4] [nM] | IC50 [5] [nM]
Cc1cc(Nc2nc(N[C@@H]3C[C@H]4CC[C@@H](C3)N4CCC#N)nc3[nH]ccc23)n[nH]1 [Embodiment 3, 3-((3-exo)-3-((4-((5-methyl-1H-pyrazol-3-yl)amino)-7H-pyrrolo[2,3-d]pyrimidin-2-yl)amino)-8-azabicyclo[3.2.1]oct-8-yl)propionitrile] | 0.11 | 0.81 | 0.29 | 0.17 | 4.5
Cc1cc(Nc2nc(N[C@@H]3C[C@H]4CC[C@@H](C3)N4CCC#N)nc3ccccc23)n[nH]1 [Embodiment 4, 3-((3-exo)-3-((4-((5-methyl-1H-pyrazol-3-yl)amino)quinazolin-2-yl)amino)-8-azabicyclo[3.2.1]oct-8-yl)propionitrile] | 0.86 | 5.72 | 0.55 | 0.68 | 2.6
Cc1cc(Nc2cc3ncccc3c(N[C@@H]3C[C@@H]4CN(CCC#N)C[C@@H]4C3)n2)n[nH]1 [Embodiment 5, 3-(cis-5-((7-((5-methyl-1H-pyrazol-3-yl)amino)-1,6-diazanaphthalen-5-yl)amino)hexahydrocyclopentadieno[c]pyrrole-2(1H)-yl)propionitrile] | 0.85 | 26.5 | 1.39 | 4.44 | 4.12
N#CCCN1[C@@H]2CC[C@H]1C[C@H](Nc1nc(Nc3cnccn3)cc3ncccc13)C2 [Embodiment 29, 3-((3-exo)-3-((7-(pyrazin-2-ylamino)-1,6-diazanaphthalen-5-yl)amino)-8-azabicyclo[3.2.1]oct-8-yl)propionitrile] | 44.2 | > 100 | > 100 | 47.3 | –
Cc1cc(Nc2nc(N[C@@H]3C[C@H]4CC[C@@H](C3)N4CCC#N)nc3cc[nH]c23)n[nH]1 [Embodiment 40, 3-((3-exo)-3-((4-((5-methyl-1H-pyrazol-3-yl)amino)-5H-pyrrolo[3,2-d]pyrimidin-2-yl)amino)-8-azabicyclo[3.2.1]oct-8-yl)pronionitrile] | 0.83 | 8.78 | 0.77 | 1.01 | 17.4
Cc1cc(Nc2cc3ncccc3c(N3CC4CCC(C3)N4CCC#N)n2)n[nH]1 [Embodiment 109, 3-(3-(7-((5-methyl-1H-pyrazol-3-yl)amino)-1,6-diazanaphthalen-5-yl)-3,8-diazabicyclo[3.2.1]oct-8-yl)propionitrile] | 7.85 | 25.9 | 6.27 | 33.9 | –
CN(c1nc(Nc2cc(CO)[nH]n2)c2ccsc2n1)[C@@H]1C[C@H]2CCC[C@@H](C1)N2S(=O)(=O)N1CC(C#N)C1 [Embodiment 132, 1-(((3-exo)-3-((4-((5-(hydroxymethyl)-1H-pyrazol-3-yl)amino)thieno[2,3-d]pyrimidin-2-yl)(methyl)amino)-9-azabicyclo[3.3.1]non-9-yl)sulfonyl)azetindin-3-formonitrile] | 0.1 | 3.43 | 0.77 | 0.42 | 23.8
Cc1cc(Nc2nc(N[C@@H]3C[C@H]4CC[C@@H](C3)N4CCC#N)nc3cnccc23)n[nH]1 [Embodiment 173, 3-((3-exo)-3-((4-((5-methyl-1H-pyrazol-3-yl)amino)pyrido[3,4-d]pyrimidin-2-yl)amino)-8-azabicyclo[3.2.1]oct-8-yl)propionitrile] | 1.07 | 26.3 | 1.15 | 0.84 | –
Cc1cc(Nc2nc(N[C@@H]3C[C@H]4CC[C@@H](C3)N4CCC#N)nc3cc(-c4cnn(C)c4)ccc23)n[nH]1 [Embodiment 186, 3-((3-exo)-3-((4-((5-methyl-1H-pyrazol-3-yl)amino)-7-(1-methyl-1H-pyrazol-4-yl)quinazolin-2-yl)amino)-8-azabicyclo[3.2.1]oct-8-yl)propionitrile] | 0.12 | 14.7 | 0.73 | 0.2 | –
Cc1cc(Nc2nc(N[C@@H]3C[C@H]4CCC[C@@H](C3)N4S(=O)(=O)N3CC(C#N)C3)nc3ccccc23)n[nH]1 [Embodiment 217] | 0.04 | 1.92 | 1.61 | 0.1 | 36.7
COc1ccc2c(Nc3cc(C)[nH]n3)nc(N(C)[C@@H]3C[C@H]4CC[C@@H](C3)N4S(=O)(=O)N3CC(C#N)C3)nc2c1 [Embodiment 218, 1-(((3-exo)-3-((7-methoxyl-4-((5-methyl-1H-pyrazol-3-yl)amino)quinazolin-2-yl)(methyl)amino)-8-azabicyclo[3.2.1]oct-8-yl)sulfonyl)azetindin-3-formonitrile] | 0.27 | 19.6 | 1.05 | 0.4 | 61.5
COc1ccc2c(Nc3cc(C)[nH]n3)nc(N[C@@H]3C[C@H]4CCC[C@@H](C3)N4S(=O)(=O)N3CC(C#N)C3)nc2c1 [Embodiment 219, 1-(((3-exo)-3-((7-methoxyl-4-((5-methyl-1H-pyrazol-3-yl)amino)quinazolin-2-yl)amino)-9-azabicyclo[3.3.1]non-9-yl)sulfonyl)azetindin-3-formonitrile] | 0.09 | 2.61 | 0.76 | 0.13 | 117
Cc1cc(Nc2nc(N(C)[C@@H]3C[C@H]4CCC[C@@H](C3)N4S(=O)(=O)N3CC(C#N)C3)nc3sccc23)n[nH]1 [Embodiment 239, 1-(((3-exo)-3-(methyl(4-((5-methyl-1H-pyrazol-3-yl)amino)thieno[2,3-d]pyrimidin-2-yl)amino)-9-azabicyclo[3.3.1]non-9-yl)sulfonyl)azacyclobutane-3-nitrile] | 0.13 | 3.11 | 1.25 | 0.22 | 39
Cc1cc(Nc2nc(N(C)[C@@H]3C[C@H]4CC[C@@H](C3)N4S(=O)(=O)N3CC(C#N)C3)nc3sccc23)n[nH]1 [Embodiment 241, 1-(((3-exo)-3-(methyl(4-((5-methyl-1H-pyrazol-3-yl)amino)thieno[2,3-d]pyrimidin-2-yl)amino)-8-azabicyclo[3.2.1]oct-8-yl)sulfonyl)azetindin-3-formonitrile] | 0.15 | 7.35 | 1.39 | 0.22 | 115
